Where “and” joins values, the source holds several entries; their conditions need not be identical. Identical values can stand only once.

Metabotropic glutamate receptor 1, sequence (P23385 whole entry): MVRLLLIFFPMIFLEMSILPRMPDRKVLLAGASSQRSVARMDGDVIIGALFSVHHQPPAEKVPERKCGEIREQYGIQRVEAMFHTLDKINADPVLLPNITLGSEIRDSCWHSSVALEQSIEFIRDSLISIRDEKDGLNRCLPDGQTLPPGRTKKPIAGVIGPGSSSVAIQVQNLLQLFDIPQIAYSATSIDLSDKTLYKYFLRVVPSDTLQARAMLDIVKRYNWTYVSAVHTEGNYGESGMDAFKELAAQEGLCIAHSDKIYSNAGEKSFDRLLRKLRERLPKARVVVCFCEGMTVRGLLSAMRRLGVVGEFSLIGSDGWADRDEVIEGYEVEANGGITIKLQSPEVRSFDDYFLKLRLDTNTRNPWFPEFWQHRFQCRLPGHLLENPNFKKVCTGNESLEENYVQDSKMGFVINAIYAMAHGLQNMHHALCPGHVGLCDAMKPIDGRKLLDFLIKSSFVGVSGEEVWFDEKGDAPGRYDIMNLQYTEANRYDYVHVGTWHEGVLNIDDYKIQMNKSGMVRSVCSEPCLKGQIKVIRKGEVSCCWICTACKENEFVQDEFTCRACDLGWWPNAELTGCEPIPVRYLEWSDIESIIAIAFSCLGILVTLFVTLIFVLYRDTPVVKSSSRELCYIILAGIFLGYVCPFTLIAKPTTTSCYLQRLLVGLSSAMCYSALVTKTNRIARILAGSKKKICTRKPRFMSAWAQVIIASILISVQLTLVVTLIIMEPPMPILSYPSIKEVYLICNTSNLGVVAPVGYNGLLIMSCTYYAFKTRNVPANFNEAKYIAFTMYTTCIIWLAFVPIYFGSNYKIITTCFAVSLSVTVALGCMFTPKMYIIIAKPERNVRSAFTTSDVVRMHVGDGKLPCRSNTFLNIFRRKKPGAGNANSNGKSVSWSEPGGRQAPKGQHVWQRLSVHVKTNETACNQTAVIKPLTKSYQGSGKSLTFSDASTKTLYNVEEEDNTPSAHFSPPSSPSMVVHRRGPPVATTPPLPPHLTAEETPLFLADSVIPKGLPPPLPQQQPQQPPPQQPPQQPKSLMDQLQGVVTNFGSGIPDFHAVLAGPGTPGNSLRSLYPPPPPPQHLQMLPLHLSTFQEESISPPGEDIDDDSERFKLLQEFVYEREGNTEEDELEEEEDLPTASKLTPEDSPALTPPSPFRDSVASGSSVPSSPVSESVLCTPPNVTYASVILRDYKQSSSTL

This test addresses Metabotropic glutamate receptor 1 (Rattus norvegicus, UniProt P23385).
In the case of `O=C(Cc1ccccc1)c1ccc2nc3c(cc2c1)CCCO3`, the Ki worked out at 1000 nM.

Turning to `CCOC(=O)C12CC1C(N=O)c1ccccc1O2` (stereo not drawn) [CAS_5126051], the Ki is 1000 nM and 4900 nM.

The molecule `N[C@H](C(=O)O)c1cc(O)cc(O)c1` [amino(3,5-dihydroxyphenyl)acetic acid] had a Ki above 10000 nM.

Broadly, the Ki is a measure of affinity in units of concentration, obtained from inhibition or displacement. A low value points to a stronger hold on the target.

These data come from BindingDB's records for doi:10.1124/mol.63.5.1082 (Johnson and Johnson Pharmaceutical Research and …, 2003).
